# Source: patent publication US9132140B2, “Boronic acid derivatives and therapeutic uses thereof” (Rempex Pharmaceuticals, Inc., priority 2013, dated 2015)
# Like-named read-outs stand apart in the source and are kept apart here.
# Key:
# [1] = test system: KP1081 (NDM-1, TEM-1, SHV-11, CMY-6, CTX-M-15); type: cell-based, Klebsiella pneumoniae; conditions: KP1081; alone
# Excerpt: (§1) The results are present in Table 6.
# (§2) The results are present in Table 7.
# [2] = test system: KP1087 (KPC-2, CTX-M-15, SHV-11, TEM-1); type: cell-based, Klebsiella pneumoniae; conditions: KP1087; alone
# Excerpt: as §1, §2
# [3] = test system: EA1019 (SHV-5, VIM-1); type: cell-based, Enterobacter aerogenes; conditions: EA1019; alone
# Excerpt: (§3) Several strains simultaneously expressing both class A and class B carbapenemases, which were constructed using conjugation, were also included in the panel.
# [4] = test system: KP1004 (KPC TEM SHV); type: cell-based, Klebsiella pneumoniae; conditions: KP1004; alone
# Excerpt: as §3
# [5] = test system: KP1014 (Vim-1, TEM, SHV); type: cell-based, Klebsiella pneumoniae; conditions: KP1014; alone
# Excerpt: as §3
# [6] = test system: KP1054 (VIM-1, SHV-11); type: cell-based, Klebsiella pneumoniae; conditions: KP1054; alone
# Excerpt: as §3
# [7] = test system: KP1059 (VIM-1, SHV-11); type: cell-based, Klebsiella pneumoniae; conditions: KP1059; alone
# Excerpt: as §3
# [8] = test system: KP1061 (KPC TEM SHV); type: cell-based, Klebsiella pneumoniae; conditions: KP1061; alone
# Excerpt: as §3
# [9] = test system: KP1064 (KPC TEM SHV); type: cell-based, Klebsiella pneumoniae; conditions: KP1064; alone
# Excerpt: as §3
# [10] = test system: KP1065 (VIM-1, SHV-11); type: cell-based, Klebsiella pneumoniae; conditions: KP1065; alone
# Excerpt: as §3
# [11] = test system: KP1070 (KPC TEM SHV); type: cell-based, Klebsiella pneumoniae; conditions: KP1070; alone
# Excerpt: as §3
# [12] = test system: KP1081 (NDM-1, TEM-1, SHV-11, CMY-6, CTX-M-15); type: cell-based, Klebsiella pneumoniae; conditions: KP1081; alone; remark: listed apart in the source
# Excerpt: as §3
# [13] = test system: KP1084 (KPC-3, SHV-11, TEM-1); type: cell-based, Klebsiella pneumoniae; conditions: KP1084; alone
# Excerpt: as §3
# [14] = test system: KP1097 (IMP-1 SHV); type: cell-based, Klebsiella pneumoniae; conditions: KP1097; alone
# Excerpt: as §3
# [15] = test system: KP1098 (IMP-26 TEM SHV); type: cell-based, Klebsiella pneumoniae; conditions: KP1098; alone
# Excerpt: as §3
# [16] = test system: KPM1097 (NDM, KPC); type: cell-based, Klebsiella pneumoniae; conditions: KPM1097; alone
# Excerpt: as §3
# [17] = test system: KPM1099 (NDM, KPC); type: cell-based, Klebsiella pneumoniae; conditions: KPM1099; alone
# Excerpt: as §3
# [18] = test system: KPM1107 (NDM, KPC); type: cell-based, Klebsiella pneumoniae; conditions: KPM1107; alone
# Excerpt: as §3
# [19] = test system: KPM1108 (NDM, KPC); type: cell-based, Klebsiella pneumoniae; conditions: KPM1108; alone
# Excerpt: as §3
# [20] = test system: KPM1109 (NDM, KPC); type: cell-based, Klebsiella pneumoniae; conditions: KPM1109; alone
# Excerpt: as §3
# [21] = test system: KPM1110 (NDM, KPC); type: cell-based, Klebsiella pneumoniae; conditions: KPM1110; alone
# Excerpt: as §3
# [22] = test system: KPM1111 (NDM, KPC); type: cell-based, Klebsiella pneumoniae; conditions: KPM1111; alone
# Excerpt: as §3
# [23] = test system: KPM1122 (NDM, VIM); type: cell-based, Klebsiella pneumoniae; conditions: KPM1122; alone
# Excerpt: as §3
# [24] = test system: KPM1123 (KPC-2 TEM SHV); type: cell-based, Klebsiella pneumoniae; conditions: KPM1123; alone
# Excerpt: as §3
# [25] = test system: KPM1344 (VIM-1); type: cell-based, Klebsiella pneumoniae; conditions: KPM1344; alone
# Excerpt: as §3
# [26] = test system: KPM1345 (VIM-1 SHV); type: cell-based, Klebsiella pneumoniae; conditions: KPM1345; alone
# Excerpt: as §3
# [27] = test system: KPM1346 (NDM-1 TEM SHV CTX-M-15 CMY); type: cell-based, Klebsiella pneumoniae; conditions: KPM1346; alone
# Excerpt: as §3
# [28] = test system: KPM1347 (NDM-1 SHV CTX-M-15); type: cell-based, Klebsiella pneumoniae; conditions: KPM1347; alone
# Excerpt: as §3
# [29] = test system: ECL1026 (KPC); type: cell-based, Enterobacter cloacae; conditions: ECL1026; alone
# Excerpt: as §3
# [30] = test system: ECL1036 (KPC); type: cell-based, Enterobacter cloacae; conditions: ECL1036; alone
# Excerpt: as §3
# [31] = test system: ECL1045 (VIM-1); type: cell-based, Enterobacter cloacae; conditions: ECL1045; alone
# Excerpt: as §3
# [32] = test system: ECL1055 (KPC); type: cell-based, Enterobacter cloacae; conditions: ECL1055; alone
# Excerpt: as §3
# [33] = test system: ECL1057 (NDM-1, TEM-1, CTX-M-15); type: cell-based, Enterobacter cloacae; conditions: ECL1057; alone
# Excerpt: as §3
# [34] = test system: ECL1082 (VIM-1); type: cell-based, Enterobacter cloacae; conditions: ECL1082; alone
# Excerpt: as §3
# [35] = test system: ECLM1013 (NDM, KPC); type: cell-based, Enterobacter cloacae; conditions: ECLM1013; alone
# Excerpt: as §3
# [36] = test system: ECLM1014 (NDM, KPC); type: cell-based, Enterobacter cloacae; conditions: ECLM1014; alone
# Excerpt: as §3
# [37] = test system: ECLM1015 (NDM, KPC); type: cell-based, Enterobacter cloacae; conditions: ECLM1015; alone
# Excerpt: as §3
# [38] = test system: ECLM1016 (NDM, KPC); type: cell-based, Enterobacter cloacae; conditions: ECLM1016; alone
# Excerpt: as §3
# [39] = test system: ECLM1017 (VIM, KPC); type: cell-based, Enterobacter cloacae; conditions: ECLM1017; alone
# Excerpt: as §3
# [40] = test system: ECLM1018 (VIM, KPC); type: cell-based, Enterobacter cloacae; conditions: ECLM1018; alone
# Excerpt: as §3
# [41] = test system: ECLM1019 (VIM, KPC); type: cell-based, Enterobacter cloacae; conditions: ECLM1019; alone
# Excerpt: as §3
# [42] = test system: EC1061 (NDM-1, CMY-6); type: cell-based, Escherichia coli; conditions: EC1061; alone
# Excerpt: as §3
# [43] = test system: EC1064 (NDM-1, CMY-6, CTX-M-15); type: cell-based, Escherichia coli; conditions: EC1064; alone
# Excerpt: as §3
# [44] = test system: EC1065 (IMP-1 CMY-2); type: cell-based, Escherichia coli; conditions: EC1065; alone
# Excerpt: as §3
# [45] = test system: EC1068 (VIM-1); type: cell-based, Escherichia coli; conditions: EC1068; alone
# Excerpt: as §3
structure (smiles),measurement,setting,value
"C[C@@H](O)[C@H]1C(=O)N2C(C(=O)O)=C(S[C@@H]3CN[C@H](C(=O)N(C)C)C3)[C@H](C)[C@H]12 [Meropenem, reference compound]",Carbapenem MIC alone,[1],Z (MIC of greater than 10 μg/mL)
same,Carbapenem MIC alone,[2],Z (MIC of greater than 10 μg/mL)
same,Carbapenem MIC alone,[3],Z (MIC of greater than 10 μg/mL)
same,Carbapenem MIC alone,[4],Z (MIC of greater than 10 μg/mL)
same,Carbapenem MIC alone,[5],Z (MIC of greater than 10 μg/mL)
same,Carbapenem MIC alone,[6],Z (MIC of greater than 10 μg/mL)
same,Carbapenem MIC alone,[7],Z (MIC of greater than 10 μg/mL)
same,Carbapenem MIC alone,[8],Y (MIC of 1 μg/mL to 10 μg/mL)
same,Carbapenem MIC alone,[9],Z (MIC of greater than 10 μg/mL)
same,Carbapenem MIC alone,[10],Y (MIC of 1 μg/mL to 10 μg/mL)
same,Carbapenem MIC alone,[11],Z (MIC of greater than 10 μg/mL)
same,Carbapenem MIC alone,[12],Z (MIC of greater than 10 μg/mL)
same,Carbapenem MIC alone,[13],Z (MIC of greater than 10 μg/mL)
same,Carbapenem MIC alone,[14],Z (MIC of greater than 10 μg/mL)
same,Carbapenem MIC alone,[15],Z (MIC of greater than 10 μg/mL)
same,Carbapenem MIC alone,[16],Z (MIC of greater than 10 μg/mL)
same,Carbapenem MIC alone,[17],Z (MIC of greater than 10 μg/mL)
same,Carbapenem MIC alone,[18],Z (MIC of greater than 10 μg/mL)
same,Carbapenem MIC alone,[19],Z (MIC of greater than 10 μg/mL)
same,Carbapenem MIC alone,[20],Z (MIC of greater than 10 μg/mL)
same,Carbapenem MIC alone,[21],Z (MIC of greater than 10 μg/mL)
same,Carbapenem MIC alone,[22],Z (MIC of greater than 10 μg/mL)
same,Carbapenem MIC alone,[23],Z (MIC of greater than 10 μg/mL)
same,Carbapenem MIC alone,[24],Z (MIC of greater than 10 μg/mL)
same,Carbapenem MIC alone,[25],Z (MIC of greater than 10 μg/mL)
same,Carbapenem MIC alone,[26],Y (MIC of 1 μg/mL to 10 μg/mL)
same,Carbapenem MIC alone,[27],Z (MIC of greater than 10 μg/mL)
same,Carbapenem MIC alone,[28],Z (MIC of greater than 10 μg/mL)
same,Carbapenem MIC alone,[29],Y (MIC of 1 μg/mL to 10 μg/mL)
same,Carbapenem MIC alone,[30],Y (MIC of 1 μg/mL to 10 μg/mL)
same,Carbapenem MIC alone,[31],Y (MIC of 1 μg/mL to 10 μg/mL)
same,Carbapenem MIC alone,[32],Y (MIC of 1 μg/mL to 10 μg/mL)
same,Carbapenem MIC alone,[33],Z (MIC of greater than 10 μg/mL)
same,Carbapenem MIC alone,[34],Y (MIC of 1 μg/mL to 10 μg/mL)
same,Carbapenem MIC alone,[35],Z (MIC of greater than 10 μg/mL)
same,Carbapenem MIC alone,[36],Z (MIC of greater than 10 μg/mL)
same,Carbapenem MIC alone,[37],Z (MIC of greater than 10 μg/mL)
same,Carbapenem MIC alone,[38],Z (MIC of greater than 10 μg/mL)
same,Carbapenem MIC alone,[39],Z (MIC of greater than 10 μg/mL)
same,Carbapenem MIC alone,[40],Z (MIC of greater than 10 μg/mL)
same,Carbapenem MIC alone,[41],Z (MIC of greater than 10 μg/mL)
same,Carbapenem MIC alone,[42],Z (MIC of greater than 10 μg/mL)
same,Carbapenem MIC alone,[43],Z (MIC of greater than 10 μg/mL)
same,Carbapenem MIC alone,[44],Y (MIC of 1 μg/mL to 10 μg/mL)
same,Carbapenem MIC alone,[45],Z (MIC of greater than 10 μg/mL)
